Experimental data taken from PMC6471177 (Pharmaceutics, 2019).

Key:
[1] = MTT cell viability assay in Caco-2 cells; assay type: cell-based; conditions: human; Caco-2 cells, 0.001 to 100 µM, 24 h, MTT
Procedure: (§1) Caco-2 cells were obtained from the Korean Cell Line Bank (Seoul, Korea). The cells were maintained in Dulbecco’s modified Eagle’s medium (DMEM) supplemented with 10% fetal bovine serum, 1% non-essential amino acids, and 100 U/mL penicillin and gentamicin at 37 °C in a humidified 5% CO2 atmosphere.
(§2) The effect of LC478 on cell viability was assessed by an MTT assay. LC478 was dissolved in diluted in 100% dimethyl sulfoxide (DMSO) and diluted with cell culture media. Caco-2 cells were seeded in 96-well plates at 1 × 10^5 cells/mL. A 100 μL of LC478 in cell culture media was treated on the plates to achieve final concentration of LC478 in the ranges of 0.001 to 100 μM, which was incubated for 24 h. After adding 10 μL/well of MTT ([…]) and incubating them for 24 h, the supernatants of the cultures were removed and replaced with 100 μL of DMSO. The cell viability rate (%) was calculated as the absorbance of treated cells divided by that of control cells. The viability of the control cells was defined as 100%.

Caco-2 cells = assay: MTT cell viability assay in Caco-2 cells; assay type: cell-based; conditions: even at 100 µM, 24 h incubation
Procedure: as §1, §2

P-gp = biological target: T1, P-gp (Homo sapiens, UniProt P08183); assay: Intracellular accumulation of docetaxel in Caco-2 cells (P-gp inhibition); assay type: cell-based
T1 construct: They were allowed to grow to confluence for 5 days to obtain higher expressions of P-gp; endogenous in cells; host or cells: Caco-2

[2] = Disappearance of docetaxel in rat hepatic microsomes with LC478; assay type: in vitro ADME; conditions: rat hepatic microsomes, LC478 1, 5, 10 µM
Procedure: (§3) The hepatic and intestinal microsomes were prepared based on a similar reported method.
(§4) Adding 0.1 M phosphate buffer (pH 7.4) adjusted the total volume as 0.5 mL, and then the components were incubated at 37 °C using a thermomixer at 500 opm. After incubation of 15 and 30 min for the hepatic and intestinal microsomes, respectively, 1 mL of acetonitrile with 5 µg/mL of paclitaxel as an internal standard added to terminate the reaction.
(§5) The unweighted kinetic data from rat hepatic and intestinal microsomes were fitted using a single-site Michaelis–Menten Equation V = Vmax × [S]/(Km + [S])(4) where [S] is the substrate concentration, Vmax is maximal velocity, and Km is substrate concentration for half-maximal velocity. The CLint was calculated by dividing the Vmax by the Km.

[3] = Disappearance of docetaxel in rat intestinal microsomes with LC478; assay type: in vitro ADME; conditions: rat intestinal microsomes, LC478 1, 5, 10 µM
Procedure: as §3, §4, §5

[4] = Rat plasma protein binding of docetaxel by equilibrium dialysis; assay type: in vitro ADME; conditions: LC478 0.1 and 10 μg/mL
Procedure: A 1 mL of the plasma was dialyzed against 1 mL of isotonic Sørensen phosphate buffer (pH 7.4) containing 3% dextran (w/v) in a dialysis cell (Spectrum Medical Industries, Laguna Hills, CA, USA) using a Spectra/Por 4 membrane (mol. wt. cutoff 12−14 KDa; Spectrum Medical Industries, USA).

[5] = LC478 concentration in intestine after oral administration and [I]/IC50 prediction; assay type: in vivo; conditions: our unpublished data
Procedure: Concentration of LC478 was determined using a HPLC-UV system. A 50 µL aliquot of acetonitrile was added to a 50 µL aliquot of biological sample. After vortex-mixing and centrifugation, the supernatant was evaporated (Dry Thermo Bath MG-2200, Eyela, Tokyo, Japan) under a soft stream of nitrogen gas at 50 °C. The residue was reconstituted in 60 µL mobile phase and a 50 µL aliquot of the supernatant was loaded onto a reverse-phase C18 column (SunFireTM; 150 mm. ℓ. × 4.6 mm. i.d.; particle size, 5 µm; Waters, Milford, MA, USA). […]. The retention time of LC478 was approximately 7.8 min, and the quantitation limit was 0.1 µg/mL.

[6] = test system: P-gp overexpressing MES-SA/DX5 sarcoma cells; conditions: cited from earlier work

T1 sequence (P08183 whole entry): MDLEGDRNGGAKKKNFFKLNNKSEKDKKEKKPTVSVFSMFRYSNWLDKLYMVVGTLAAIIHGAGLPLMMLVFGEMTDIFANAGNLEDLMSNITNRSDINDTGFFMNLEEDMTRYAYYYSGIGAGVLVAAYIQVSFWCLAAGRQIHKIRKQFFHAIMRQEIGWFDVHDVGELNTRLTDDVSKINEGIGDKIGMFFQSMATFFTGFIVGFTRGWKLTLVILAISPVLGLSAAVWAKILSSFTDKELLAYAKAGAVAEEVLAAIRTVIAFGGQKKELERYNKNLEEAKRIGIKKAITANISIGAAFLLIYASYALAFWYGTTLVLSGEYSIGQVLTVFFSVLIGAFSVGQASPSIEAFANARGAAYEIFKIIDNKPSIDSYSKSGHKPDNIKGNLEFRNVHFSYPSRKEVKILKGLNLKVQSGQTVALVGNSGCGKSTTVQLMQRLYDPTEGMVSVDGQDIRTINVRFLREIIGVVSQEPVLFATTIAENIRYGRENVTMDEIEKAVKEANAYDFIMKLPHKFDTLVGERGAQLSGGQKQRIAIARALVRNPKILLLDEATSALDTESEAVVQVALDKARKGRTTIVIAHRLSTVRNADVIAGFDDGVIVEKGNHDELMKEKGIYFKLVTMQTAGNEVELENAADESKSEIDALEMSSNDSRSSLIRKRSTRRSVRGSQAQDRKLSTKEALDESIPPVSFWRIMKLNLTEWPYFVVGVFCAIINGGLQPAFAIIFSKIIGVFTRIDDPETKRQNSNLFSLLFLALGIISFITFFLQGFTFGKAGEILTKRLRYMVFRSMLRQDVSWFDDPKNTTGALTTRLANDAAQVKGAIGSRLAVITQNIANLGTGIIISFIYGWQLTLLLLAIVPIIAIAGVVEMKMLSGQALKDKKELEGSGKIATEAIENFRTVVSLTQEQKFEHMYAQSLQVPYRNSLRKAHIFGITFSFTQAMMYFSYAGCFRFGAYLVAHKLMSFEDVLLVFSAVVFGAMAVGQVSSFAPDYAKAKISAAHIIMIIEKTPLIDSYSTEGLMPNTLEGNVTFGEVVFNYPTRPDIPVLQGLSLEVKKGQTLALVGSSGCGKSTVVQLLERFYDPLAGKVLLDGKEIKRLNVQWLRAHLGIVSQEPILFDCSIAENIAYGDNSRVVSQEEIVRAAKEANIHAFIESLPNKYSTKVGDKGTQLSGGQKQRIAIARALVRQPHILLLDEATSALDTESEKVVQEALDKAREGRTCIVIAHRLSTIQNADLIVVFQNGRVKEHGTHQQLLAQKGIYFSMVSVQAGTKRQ

## COC(=O)c1cccc(NC(=O)COc2ccc(C34CC5CC(CC(C(=O)N6CCN(Cc7ccc(C(F)(F)F)cc7)CC6)(C5)C3)C4)cc2)c1 [LC478]
[1]
  viability at 24 h: 97 to 100%
Caco-2 cells
  toxicity to Caco-2 cells: not toxic
P-gp
  IC50: 601 nM
[2]
  effect on hepatic metabolism of docetaxel: not inhibited
[3]
  effect on intestinal metabolism of docetaxel: not inhibited
[4]
  effect on protein binding of docetaxel in rat plasma: did not affect
[5]; after oral administration of 30 mg/kg LC478
  LC478 concentration in the intestine: 3.25 to 5.18 µM
[5]; after oral administration of 100 mg/kg LC478
  LC478 concentration in the intestine: 9.37 to 12.3 µM
[6]
  effect on P-gp mediated efflux of paclitaxel: reversed P-gp mediated efflux activity
  intrinsic cytotoxicity: without intrinsic cytotoxicity
